Patent publication US20230174484A1, “ANTAGONISTS OF GPR39 PROTEIN” (Oregon Health & Science University, priority 2020, published 2023)

Biological target: T1, human GPR39 receptor (Homo sapiens, UniProt O43194)
T1 construct: PC3 Cells, Expressing the Endogenous Human GPR39 Receptor; endogenous in cells; host or cells: PC3 (human prostate adenocarcinoma) cells
T1 sequence (O43194 1-453): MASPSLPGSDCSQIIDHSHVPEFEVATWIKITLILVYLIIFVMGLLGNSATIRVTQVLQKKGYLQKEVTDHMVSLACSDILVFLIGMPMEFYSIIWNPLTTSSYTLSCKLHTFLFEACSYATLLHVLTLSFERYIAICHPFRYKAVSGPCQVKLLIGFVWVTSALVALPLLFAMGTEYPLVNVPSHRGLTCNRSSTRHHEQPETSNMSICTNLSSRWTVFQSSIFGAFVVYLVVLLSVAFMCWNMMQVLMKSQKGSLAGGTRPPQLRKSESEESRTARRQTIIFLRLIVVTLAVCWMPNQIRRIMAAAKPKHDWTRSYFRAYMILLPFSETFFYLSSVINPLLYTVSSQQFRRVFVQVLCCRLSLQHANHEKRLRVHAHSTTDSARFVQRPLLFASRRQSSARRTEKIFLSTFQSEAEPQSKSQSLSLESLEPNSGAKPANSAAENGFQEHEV
Experiment: Measurement of intracellular calcium response in PC3 cells (FLIPR), antagonism of the C3 agonist response
Format: cell-based
Details: functional pKi (modified Cheng-Prusoff), inhibition of the C3 (TC-G 1008) response at EC90, 30 μM ZnCl2, read-out: fpKi activity
How it was run: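 Potency was reported as fpKi, converted by modified Cheng-Prusoff from four-parameter IC50 fits against an EC90 C3 agonist challenge. Calcium-6 FLIPR readings used PC3 cells naturally expressing human GPR39, in pH 7.4 HEPES buffer containing 30 μM final ZnCl2. Score bands: +/± <5.2, + 5.2–5.9, ++ 6.0–6.5, +++ 6.6–7.2, ++++ ≥7.3.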

Compound	Ki
CN1CCN(C(=O)c2ccc(NC(=O)C3CC3)cc2N2CCC(F)(F)C2)C(c2ccccc2)C1 (single isomer, unassigned) [Example 202b, N-[3-(3,3-difluoropyrrolidin-1-yl)-4-(2R or 2S)-4-methyl-2-phenylpiperazine-1-carbonyl)phenyl]cyclopropanecarboxamide]	≤ 50.1 nM
O=C(Nc1ccc(C(=O)N2CCC3(CC2)COC3)c(N2CCC(C(F)(F)F)C2)c1)C1CC1 (single isomer, unassigned) [Example 213a, N-[4-(2-oxa-7-azaspiro[3.5]nonane-7-carbonyl)-3-[3R or 3S-(trifluoromethyl)pyrrolidin-1yl]phenyl]cyclopropanecarboxamide]	≤ 50.1 nM
O=C(Nc1ccc(C(=O)N2CCC3(CC2)COC3)c(N2CCC(C(F)(F)F)C2)c1)C1CC1 (single isomer, unassigned) [Example 213b]	63.1 to 251 nM
CCCN1CCN(C(=O)c2ccc(NC(=O)C3CC3)cc2N2CCC3(CCC3)C2)CC1 [Example 1, N-(4-(4-propylpiperazine-1-carbonyl)-3-(6-azaspiro[3.4]octan-6-yl)phenyl)cyclopropanecarboxamide]	≤ 50.1 nM
CCCN1CCN(C(=O)c2ccc(NC(=O)C3CC3)cc2N2CC[C@@H](C(C)C)C2)CC1 [Example 2, (S)-N-(3-(3-isopropylpyrrolidin-1-yl)-4-(4-propylpiperazine-1-carbonyl)phenyl)cyclopropanecarboxamide]	≤ 50.1 nM
CCCN1CCN(C(=O)c2ccc(NC(=O)C3CC3)cc2N2CCCOCC2)CC1 [Example 3, N-[3-(1,4-oxazepan-4-yl)-4-(4-propylpiperazine-1-carbonyl)phenyl]cyclopropanecarboxamide]	316 to 1000 nM
CCCN1CCN(C(=O)c2ccc(NC(=O)C3CC3)cc2N2CC3(CCOCC3)C2)CC1 [Example 4, N-(4-(4-propylpiperazine-1-carbonyl)-3-(7-oxa-2-azaspiro[3.5]nonan-2-yl)phenyl)cyclopropane carboxamide]	316 to 1000 nM
CCCN1CCN(C(=O)c2ccc(NC(=O)C3CC3)cc2N2CCC(c3ccccc3)C2)CC1 (stereo not shown) [Example 5, N-(3-(3-phenylpyrrolidin-1-yl)-4-(4-propylpiperazine-1-carbonyl)phenyl) cyclopropanecarboxamide]	316 to 1000 nM
CCCN1CCN(C(=O)c2ccc(NC(=O)C3CC3)cc2N2CCCC3(COC3)C2)CC1 [Example 6, N-(4-(4-propylpiperazine-1-carbonyl)-3-(2-oxa-6-azaspiro[3.5]nonan-6-yl)phenyl)cyclopropane carboxamide]	1260 to 6310 nM
CCCN1CCN(C(=O)c2ccc(NC(=O)C3CC3)cc2N2CCC(F)(F)CC2)CC1 [Example 7, N-(3-(4,4-difluoropiperidin-1-yl)-4-(4-propylpiperazine-1-carbonyl)phenyl) cyclopropanecarboxamide]	1260 to 6310 nM
CCCN1CCN(C(=O)c2ccc(NC(=O)C3CC3)cc2-n2ccc(C)n2)CC1 [Example 8, N-(3-(3-methyl-1H-pyrazol-1-yl)-4-(4-propylpiperazine-1-carbonyl)phenyl)cyclopropanecarboxamide]	63.1 to 251 nM
CCCN1CCN(C(=O)c2ccc(NC(=O)C3CC3)cc2-n2ccc(C)c2)CC1 [Example 9, N-[3-(3-methylpyrrol-1-yl)-4-(4-propylpiperazine-1-carbonyl)phenyl] Cyclopropanecarboxamide]	1260 to 6310 nM
CCCN1CCN(C(=O)c2ccc(NC(=O)C3CC3)cc2-c2ccccc2)CC1 [Example 10, N-(6-(4-propylpiperazine-1-carbonyl)-[1,1′-biphenyl]-3-yl)cyclopropanecarboxamide]	1260 to 6310 nM
CCCN1CCN(C(=O)c2ccc(NC(=O)C3CC3)cc2-c2ccccn2)CC1 [Example 11, N-(4-(4-propylpiperazine-1-carbonyl)-3-(pyridin-2-yl)phenyl)cyclopropanecarboxamide]	316 to 1000 nM
CCCN1CCN(C(=O)c2ccc(NC(=O)C3CC3)cc2N2CC3CC3C2)CC1 (stereo not shown) [Example 12, N-(3-(3-azabicyclo[3.1.0]hexan-3-yl)-4-(4-propylpiperazine-1-carbonyl)phenyl)cyclopropanecarboxamide]	316 to 1000 nM
CCCN1CCN(C(=O)c2ccc(NC(=O)C3CC3)cc2N2CCC(C)CC2)CC1 [Example 15, N-(3-(4-methylpiperidin-1-yl)-4-(4-propylpiperazine-1-carbonyl)phenyl) cyclopropanecarboxamide]	63.1 to 251 nM
CCCN1CCN(C(=O)c2ccc(NC(=O)C3CC3)cc2N2CCCC2)CC1 [Example 16, N-[4-(4-propylpiperazine-1-carbonyl)-3-(pyrrolidin-1-yl)phenyl] Cyclopropanecarboxamide]	63.1 to 251 nM

Compound	Ki
CCCN1CCN(C(=O)c2ccc(NC(=O)C3CC3)cc2N2CCC(C)(C)CC2)CC1 [Example 17, N-(3-(4,4-dimethylpiperidin-1-yl)-4-(4-propylpiperazine-1-carbonyl)phenyl)cyclopropanecarboxamide]	63.1 to 251 nM
CCCN1CCN(C(=O)c2ccc(NC(=O)C3CC3)cc2N2CCc3ccccc3C2)CC1 [Example 18, N-(3-(3,4-dihydroisoquinolin-2(1H)-yl)-4-(4-propylpiperazine-1-carbonyl)phenyl)cyclopropane carboxamide]	316 to 1000 nM
CCCN1CCN(C(=O)c2ccc(NC(=O)C3CC3)cc2N2CCCCC2)CC1 [Example 19, N-(3-(piperidin-1-yl)-4-(4-propylpiperazine-1-carbonyl)phenyl)cyclopropanecarboxamide]	316 to 1000 nM
CCCN1CCN(C(=O)c2ccc(NC(=O)C3CC3)cc2NC2CCCC2)CC1 [Example 20, N-[3-(cyclopentylamino)-4-(4-propylpiperazine-1-carbonyl)phenyl]cyclopropanecarboxamide]	316 to 1000 nM
O=C(Nc1ccc(C(=O)N2CCc3ccccc3C2)c(N2CCCCCC2)c1)C1CC1 [Example 21, N-(3-(azepan-1-yl)-4-(1,2,3,4-tetrahydroisoquinoline-2-carbonyl)phenyl) cyclopropanecarboxamide]	316 to 1000 nM
O=C(Nc1ccc(C(=O)N2CCN(Cc3ccon3)CC2)c(N2CCCCCC2)c1)C1CC1 [Example 22, N-(3-(azepan-1-yl)-4-(4-(isoxazol-3-ylmethyl)piperazine-1-carbonyl)phenyl) cyclopropanecarboxamide]	63.1 to 251 nM
O=C(Nc1ccc(C(=O)N2CCN(Cc3cc[nH]n3)CC2)c(N2CCCCCC2)c1)C1CC1 [Example 23]	316 to 1000 nM
O=C(Nc1ccc(C(=O)N2CCN(Cc3ncco3)CC2)c(N2CCCCCC2)c1)C1CC1 [Example 24, N-(3-(azepan-1-yl)-4-(4-(oxazol-2-ylmethyl)piperazine-1-carbonyl)phenyl) cyclopropanecarboxamide]	63.1 to 251 nM
COc1cccc(CN2CCN(C(=O)c3ccc(NC(=O)C4CC4)cc3N3CCCCCC3)CC2)c1 [Example 25, N-(3-(azepan-1-yl)-4-(4-(3-methoxybenzyl)piperazine-1-carbonyl)phenyl) Cyclopropanecarboxamide]	316 to 1000 nM
O=C(Nc1ccc(C(=O)N2CCN(Cc3cccc(F)c3)CC2)c(N2CCCCCC2)c1)C1CC1 [Example 26, N-(3-(azepan-1-yl)-4-(4-(3-fluorobenzyl)piperazine-1-carbonyl)phenyl) Cyclopropanecarboxamide]	63.1 to 251 nM
COc1ccccc1CN1CCN(C(=O)c2ccc(NC(=O)C3CC3)cc2N2CCCCCC2)CC1 [Example 27, N-(3-(azepan-1-yl)-4-(4-(2-methoxybenzyl)piperazine-1-carbonyl)phenyl) cyclopropanecarboxamide]	316 to 1000 nM
O=C(Nc1ccc(C(=O)N2CCN(Cc3ccccc3F)CC2)c(N2CCCCCC2)c1)C1CC1 [Example 28, N-(3-(azepan-1-yl)-4-(4-(2-fluorobenzyl)piperazine-1-carbonyl)phenyl) Cyclopropanecarboxamide]	63.1 to 251 nM
O=C(Nc1ccc(C(=O)N2CCN(Cc3ccc(F)cc3)CC2)c(N2CCCCCC2)c1)C1CC1 [Example 29, N-(3-(azepan-1-yl)-4-(4-(4-fluorobenzyl)piperazine-1-carbonyl)phenyl) Cyclopropanecarboxamide]	63.1 to 251 nM
COc1ccc(CN2CCN(C(=O)c3ccc(NC(=O)C4CC4)cc3N3CCCCCC3)CC2)cc1 [Example 30, N-(3-(azepan-1-yl)-4-(4-(4-methoxybenzyl)piperazine-1-carbonyl)phenyl) cyclopropanecarboxamide]	316 to 1000 nM
O=C(Nc1ccc(C(=O)N2CCN(Cc3ccccc3Cl)CC2)c(N2CCCCCC2)c1)C1CC1 [Example 31, N-(3-(azepan-1-yl)-4-(4-(2-chlorobenzyl)piperazine-1-carbonyl)phenyl) Cyclopropanecarboxamide]	316 to 1000 nM
O=C(Nc1ccc(C(=O)N2CCN(Cc3cccnc3)CC2)c(N2CCCCCC2)c1)C1CC1 [Example 32, N-(3-(azepan-1-yl)-4-(4-(pyridin-3-ylmethyl)piperazine-1-carbonyl)phenyl)cyclopropanecarboxamide]	316 to 1000 nM
O=C(Nc1ccc(C(=O)N2CCN(c3nccc4ccsc34)CC2)c(N2CCCCCC2)c1)C1CC1 [Example 33, N-[3-(azepan-1-yl)-4-(4-thieno[2,3-c]pyridin-7-ylpiperazine-1-carbonyl)phenyl]Cyclopropanecarboxamide]	1260 to 6310 nM
